Test results as given in patent US8946269B2, “Crystalline forms of a factor Xa inhibitor” (Portola Pharmaceuticals, Inc., priority 2010, dated 2015).

Assays:
Assay type in all cases: physicochemical
pKa determination = conditions: amidine
Protocol: This can be performed on a Sirius GlpKa instrument with a D-PAS attachment. Measurements can be made by UV in aqueous and by potentiometric in methanol and water mixtures at 25° C. The titration media is ionic strength adjusted with 0.15 M KCl. The values found in the methanol and water mixtures are corrected to 0% co-solvent via a Yasuda-Shedlovsky extrapolation. The data can be refined using Refinement Pro software version 1.0. Prediction of pKa values can be made using ACD pKa prediction software Ver. 8.08.

[1] = Solubility at 25° C. (slurried in solvent 24 hours, liquid quantified by HPLC)
Excerpt: Solids were checked by XRPD and the liquid was submitted for quantification by HPLC.

[2] = Physical and chemical stability on storage
Excerpt: FIG. 10 provides XRPD patterns from turnover experiments. A is an XRPD of Form II.

SMILES | pKa (pKa determination) | Solubility at 25° C. ([1]; MTBE) | time remaining physically and chemically stable ([2]; 25° C. and 60% RH) | time remaining physically and chemically stable ([2]; 40° C. and 75% RH) | Solubility at 25° C. ([1]; Acetone) | Solubility at 25° C. ([1]; Anhydrous ethanol (0.03% water)) | Solubility at 25° C. ([1]; DMF) | Solubility at 25° C. ([1]; IPA) | Solubility at 25° C. ([1]; MeOH, yellow solvate formed) | Solubility at 25° C. ([1]; in ethanol (summary table), listed as Betrixaban Maleate Form II) [mg/mL in ethanol]
COc1ccc(NC(=O)c2ccc(C(=N)N(C)C)cc2)c(C(=O)Nc2ccc(Cl)cn2)c1 [Form I, reference compound] | 11.4 | 0.001 |  |  |  |  |  |  |  | 
COc1ccc(NC(=O)c2ccc(C(=N)N(C)C)cc2)c(C(=O)Nc2ccc(Cl)cn2)c1 [Form II] |  | 0.01 | at least 6 months | at least 6 months | 0.99 | 4.8 | >246 | 0.63 | 37.9 (yellow | 4.8
